Like-named read-outs stand apart in the source and are kept apart here.
T1: p53R2/M1 (p53R2 and hRRM1 reconstituted RNR) (Homo sapiens, UniProt Q7LG56)
T1 construct: 6xHis; made in house
T1 sequence (Q7LG56 1-351): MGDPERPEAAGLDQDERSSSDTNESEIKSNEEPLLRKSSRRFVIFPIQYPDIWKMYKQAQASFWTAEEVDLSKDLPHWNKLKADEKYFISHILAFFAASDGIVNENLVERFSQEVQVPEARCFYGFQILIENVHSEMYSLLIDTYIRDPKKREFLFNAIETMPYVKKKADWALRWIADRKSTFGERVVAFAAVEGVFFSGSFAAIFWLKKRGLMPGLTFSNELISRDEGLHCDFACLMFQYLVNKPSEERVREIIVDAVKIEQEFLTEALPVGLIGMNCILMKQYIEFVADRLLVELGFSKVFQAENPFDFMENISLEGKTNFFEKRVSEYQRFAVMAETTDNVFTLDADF

T2: M2/M1 (hRRM2 and hRRM1 reconstituted RNR) (Homo sapiens, UniProt P31350)
T2 construct: 6xHis; made in house
T2 sequence (P31350 1-389): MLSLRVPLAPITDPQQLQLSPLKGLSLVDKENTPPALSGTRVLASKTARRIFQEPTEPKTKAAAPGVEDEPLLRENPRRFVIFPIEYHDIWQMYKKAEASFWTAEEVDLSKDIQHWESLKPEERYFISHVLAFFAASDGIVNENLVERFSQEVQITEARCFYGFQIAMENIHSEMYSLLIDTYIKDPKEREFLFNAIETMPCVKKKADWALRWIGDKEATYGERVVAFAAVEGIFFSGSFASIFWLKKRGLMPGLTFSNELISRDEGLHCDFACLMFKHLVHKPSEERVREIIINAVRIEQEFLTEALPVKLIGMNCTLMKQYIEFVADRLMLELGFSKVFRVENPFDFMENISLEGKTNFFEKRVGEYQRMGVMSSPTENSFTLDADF

T3: p53R2/hRRM1 (Homo sapiens, UniProt Q7LG56, Y124W)
T3 construct: 6xHis; made in house; host or cells: E. coli BL21(DE3), pET-p53R2 template
T3 sequence (Q7LG56 1-351 Y124W): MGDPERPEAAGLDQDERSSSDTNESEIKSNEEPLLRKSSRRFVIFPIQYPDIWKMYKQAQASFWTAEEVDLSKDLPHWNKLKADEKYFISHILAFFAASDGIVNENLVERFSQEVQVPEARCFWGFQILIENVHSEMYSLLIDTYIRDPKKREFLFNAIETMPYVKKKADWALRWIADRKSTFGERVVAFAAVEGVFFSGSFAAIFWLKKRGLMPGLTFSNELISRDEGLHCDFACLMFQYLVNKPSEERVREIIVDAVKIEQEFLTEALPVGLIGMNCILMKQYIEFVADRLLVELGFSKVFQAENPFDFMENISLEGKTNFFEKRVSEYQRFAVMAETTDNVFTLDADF


What was measured:
[1] = tested on: T4, RNR containing hRRM2 or p53R2; assay: In vitro RNR activity assay, both reconstituted RNRs compared (average, selective index, comparison in words); type: biochemical, human; conditions: for IC50: average of M2/M1 and p53R2/M1, read-out: In vitro RR activity (IC50) Average
T4 construct: In vitro RR activity (IC50) Average; other: compound in 1% DMSO; average of M2/M1 and p53R2/M1; other: compound in 2.5% DMSO; other: compound in dH2O + FeCl3; other: compound in dH2O; Inhi; fused on or other part: 6xHis tag on each subunit
Experimental: (§1) To reconstitute an active RNR, three 6′His-tag human RNR subunit proteins (hRRM2, p53R2, and hRRM1) were prokaryotically expressed, purified using Ni-resin affinity chromatography, and stored in 50 mM Tris-HCl, pH 7.4, 100 mM KCl at −70° C. according to standard techniques. The purified proteins were subjected to SDS-PAGE analysis. […] To reconstitute RNR, 1 μM of hRRM2 or p53R2 protein was incubated with 0.5 μM hRRM1 protein in multiple-well plates. The reconstitute RNR was tested for RNR activity according to standard techniques.
(§2) Each compound of various concentration was mixed with the purified hRRM2 and hRRM1, or p53R2 and hRRM1 at room temperature for 30 minutes. An enzymatic reaction buffer was then added to the mixture to reach a final volume of 100 μl and incubated at 37° C. for 30 minutes. The reaction buffer contained […] [^3H] CDP, 50 mM HEPES pH 7.2,6 mM DTT, 4 mM MgOAC, 2 mM ATP, 0.05 mM CDP, 100 mM KCl, and 0.24 mM NADPH. […] FeCl3 could be added to the buffer as an iron source. After dephosphorylation, the supernatant of each reaction mixture was analyzed by an HPLC-connected radioactivity detector. IC50 values were calculated by the non-linear regression equations: f (x)=(a-d)/[1+(x/c)^b]+d.
The above-described four SB-HSCs were tested for their inhibitory potency and subunit-selectivity by the in vitro RNR assay in the same manner descried above. The dose-dependent inhibition curves were found.

[2] = target: T1, p53R2/M1 (p53R2 and hRRM1 reconstituted RNR); assay: In vitro RNR activity assay with reconstituted p53R2/hRRM1 ([3H]CDP reduction); type: biochemical; conditions: read-out: In vitro RR activity (IC50 ± sd) p53R2/M1
Experimental: as §1, §2

[3] = tested on: tyrosyl radicals of both RNR small subunits (hRRM2, p53R2); assay: EPR spectroscopy of tyrosyl radical after incubation with compound; type: biochemical, human; conditions: protein incubated with compound at room temperature for 30 minutes; EPR at 20 K
Experimental: Electron paramagnetic resonance (EPR) spectroscopy was then conducted. Prior to EPR, protein samples were incubated with each of the above-described compounds at room temperature for 30 minutes. EPR parameters were set as following: T=20 K, microwave frequency=9.376 GHz, microwave power=0.5 mW, modulation amplitude 4 gauss, modulation frequency 100 KHz. […] The EPR analysis was conduced in the presence of irons and the reductants.

[4] = target: T2, M2/M1 (hRRM2 and hRRM1 reconstituted RNR); assay: In vitro RNR activity assay with reconstituted hRRM2/hRRM1 ([3H]CDP reduction); type: biochemical; conditions: read-out: In vitro RR activity (IC50 ± sd) M2/M1
Experimental: as §1, §2

p53R2/hRRM1 = target: T3, p53R2/hRRM1; assay: RNR activity of mutated p53R2 proteins with hRRM1 (modified [3H]CDP reduction assay); type: biochemical
Experimental: The activities of hRRM2/hRRM1 and p53R2/hRRM1 were measured using a modified [^3H] CDP reduction assay. The reaction mixture contained 0.125 μM [^3H] CDP (0.3 μCi), 50 mM of HEPES (pH 7.2), 6 mM DTT, 4 mM MgOAC, 2 mM ATP, 0.05 mM CDP, 100 mM KCl, 0.24 mM NADPH. The enzyme activity was measured in the presence of 0.5 μM of M1 protein and 1 μM of hRRM2 or p53R2 proteins with a total sample volume of 100 μl. After incubation at 37° C. for 15-30 minutes and dephosphorylation with phosphodiesterase, the supernatant was analyzed by HPLC using a C-18 reversed phase column to separate [^3H] cytidine and [^3H] deoxycytidine. Radioactivity of the HPLC aliquots was measured with a β-RAM-2B Flow-through radioisotope beta/gamma detector (IN/US Systems, Tampa, Fla.). The enzyme activity was measured as relative activity of dCDP/(CDP+dCDP)% (i. e., the percentage of dCDP of all ribonucleoside diphosphates and deoxyribonucleoside diphosphates). Results were normalized against those of wild type proteins, which were considered having 100% conversion of CDP to dCDP. Each value is the average of two to three determinations with deviations <0.3%.

Row | IC50 ([1]; compound in 1% DMSO) [µM] | IC50 ([1]; compound in 2.5% DMSO) [µM] | IC50 ([1]; compound in dH2O + FeCl3) [µM] | IC50 ([1]; compound in dH2O) [µM] | IC50 ([2]; compound in 1% DMSO) [µM] | IC50 ([2]; compound in 2.5% DMSO) [µM] | IC50 ([2]; compound in dH2O + FeCl3) [µM] | IC50 ([2]; compound in dH2O) [µM] | IC50 ([4]; compound in 1% DMSO) [µM] | IC50 ([4]; compound in 2.5% DMSO) [µM] | IC50 ([4]; compound in dH2O + FeCl3) [µM] | IC50 ([4]; compound in dH2O) [µM] | Molecule | Inhibition of reconstituted RNR activity (in words) [1] | Quenching of tyrosyl radical EPR signal [3] | Enzyme activity retained, fraction of the wild type protein (p53R2/hRRM1)
1 | 153 | 150 | 1270 | 178 | 159 ± 6.82 | 146 ± 6.06 | 1990 ± 71.2 | 190 ± 6.43 | 148 ± 7.34 | 155 ± 6.59 | 556 ± 24.1 | 165 ± 7.95 | NC(=O)NO [HU, Hydroxyurea] | significantly inhibited the activity of RNR containing hRRM2 or p53R2 | quenched the tyrosyl radicals of both RNR small subunits | –
2 | – | – | – | – | – | – | – | – | – | – | – | – | Y124W-p53R2: p53R2 mutant with Tyr124 replaced by tryptophan (SEQ ID NO: 19) (protein, listed as Homo sapiens) MGDPERPEAAGLDQDERSSSDTNESEIKSNEEPLLRKSSRRFVIFPIQYPDIWKMYKQAQASFWTAEEVDLSKDLPHWNKLKADEKYFISHILAFFAASDGIVNENLVERFSQEVQVPEARCFWGFQILIENVHSEMYSLLIDTYIRDPKKREFLFNAIETMPYVKKKADWALRWIADRKSTFGERVVAFAAVEGVFFSGSFAAIFWLKKRGLMPGLTFSNELISRDEGLHCDFACLMFQYLVNKPSEERVREIIVDAVKIEQEFLTEALPVGLIGMNCILMKQYIEFVADRLLVELGFSKVFQAENPFDFMENISLEGKTNFFEKRVSEYQRFAVMAETTDNVFTLDADF | – | – | 1/3

— patent US20050260637A1, “Drug screening” (priority 2004, published 2005)
